Experimental data taken from patent US20050256003A1, “Novel herbicides” (priority 2002, published 2005).

What was measured:
Format in all cases: in vivo
selected test plants = test: Post-emergence action in a different test arrangement (Table B3); set-up: key to Post-emergence action (different test arrangement), Nasturtium / Post-emergence action (different test arrangement), Stellaria / Post-emergence action (different test arrangement), Solanum: 10=total damage; 0=no action; Ratings of from 10 to 7 (especially from 10 to 8) indicate good to very good herbicidal action; conditions: 250 g a.i./ha
[1] = system: monocotyledonous and dicotyledonous test plants; test: Herbicidal action prior to emergence of the plants (pre-emergence action); set-up: key: 10=total damage; 0=no action; Ratings of from 10 to 7 (especially from 10 to 8) indicate good to very good herbicidal action; conditions: 250 g a.i./ha, pre-emergence spray, evaluated after 3 weeks, scale 10=total damage, 0=no action
Excerpt: Herbicidal Action Prior to Emergence of the Plants (Pre-Emergence Action)
Monocotyledonous and dicotyledonous test plants are sown in standard soil in plastic pots Immediately after sowing, the test compounds, in the form of an aqueous suspension (prepared from a 25% wettable powder (Example F3, b) according to WO 97/34485) or in the form of an emulsion (prepared from a 25% emulsifiable concentrate (Example F1, c)), are applied by spraying in a concentration corresponding to 125 g or 250 g of active ingredient/ha (500 litres of water/ha). The test plants are then grown in a greenhouse under optimum conditions. After a test duration of 3 weeks, the test is evaluated in accordance with a scale of nine ratings (10=total damage, 0=no action). Ratings of from 10 to 7 (especially from 10 to 8) indicate good to very good herbicidal action.

[2] = system: monocotyledonous and dicotyledonous test plants; test: Post-emergence herbicidal action; set-up: key: 10=total damage; 0=no action; Ratings of from 10 to 7 (especially from 10 to 8) indicate good to very good herbicidal action; conditions: 250 g a.i./ha, about 18 days, rating 0-10
Experimental: Post-Emergence Herbicidal Action
In a greenhouse, monocotyledonous and dicotyledonous test plants are grown in standard soil in plastic pots and at the 4- to 6-leaf stage are sprayed with an aqueous suspension of the test compounds of formula I prepared from a 25% wettable powder (Example F3, b) according to WO 97/34485) or with an emulsion of the test compounds of formula I prepared from a 25% emulsifiable concentrate (Example F1, c) according to WO 97/34485), in a concentration corresponding to 125 g or 250 g of active ingredient/ha (500 litres of water/ha). The test plants are then grown on in a greenhouse under optimum conditions. After a test duration of about 18 days, the test is evaluated in accordance with a scale of nine ratings (10=total damage, 0=no action). Ratings of from 10 to 7 (especially from 10 to 8) indicate good to very good herbicidal action.

SMILES | Post-emergence action (different test arrangement), Amaranthus (selected test plants) | Post-emergence action (different test arrangement), Nasturtium (selected test plants) | Post-emergence action (different test arrangement), Solanum (selected test plants) | Post-emergence action (different test arrangement), Stellaria (selected test plants) | Pre-emergence action: Abutilon (rating) [1] | Pre-emergence action: Amaranthus (rating) [1] | Pre-emergence action: Chenopodium (rating) [1] | Pre-emergence action: Cyperus (rating) [1] | Pre-emergence action: Echinochloa (rating) [1] | Pre-emergence action: Panicum (rating) [1] | Pre-emergence action: Scirpus (rating) [1] | Pre-emergence action: Sida (rating) [1] | Post-emergence action, Amaranthus [2] | Post-emergence action, Chenopodium [2] | Post-emergence action, Echinochloa [2] | Post-emergence action, Euphorbia [2] | Post-emergence action, Ipomea [2] | Post-emergence action, Sinapis [2] | Post-emergence action, Stellaria [2] | Post-emergence action, Xanthium [2]
CN1CCN(Cc2nc(C(F)(F)F)ccc2C(=O)C2=C(O)CCCC2=O)C1=O [Compound A1.213] | 9 | 9 | 9 | 9 | – | – | – | – | – | – | – | – | – | – | – | – | – | – | – | –
CC1CCN(Cc2nc(C(F)(F)F)ccc2C(=O)c2cnn(C)c2O)C1=O (stereo not shown) [Compound B1.226] | 8 | 10 | 9 | 9 | – | – | – | – | – | – | – | – | – | – | – | – | – | – | – | –
CC1CCC(=O)N1Cc1nc(C(F)(F)F)ccc1C(=O)C1=C(O)CCCC1=O (stereo not shown) [Compound A1.223] | 8 | 10 | 9 | 9 | – | – | – | – | – | – | – | – | – | – | – | – | – | – | – | –
Cn1ncc(C(=O)c2ccc(C(F)(F)F)nc2CN2CCC2=O)c1O [Compound B1.225] | 8 | 10 | 9 | 10 | – | – | – | – | – | – | – | – | – | – | – | – | – | – | – | –
O=C1CCCC(O)=C1C(=O)c1ccc(C(F)(F)F)nc1CN1CCCC1=O [Compound A1.219] | 9 | 10 | 9 | 10 | – | – | – | – | – | – | – | – | – | – | – | – | – | – | – | –
Cn1ncc(C(=O)c2ccc(C(F)(F)F)nc2CN2CN(c3ccc(Cl)cc3)CC2=O)c1O [Compound B1.238] | 9 | 8 | 9 | 7 | – | – | – | – | – | – | – | – | – | – | – | – | – | – | – | –
Cc1nn(Cc2nc(C(F)(F)F)ccc2C(=O)C2=C(O)CCCC2=O)c(=O)o1 [Compound A1.097, 3-[3-(2-Hydroxy-6-oxo-cyclohex-1-enecarbonyl)-6-trifluoromethyl-pyridin-2-ylmethyl]-5-methyl-3H-[1.3.4]oxadiazol-2-one] | 9 | 10 | 9 | 9 | – | – | – | – | – | – | – | – | – | – | – | – | – | – | – | –
CC(C)N1CC(=O)N(Cc2nc(C(F)(F)F)ccc2C(=O)C2=C(O)CCCC2=O)C1=O [Compound A1.175] | 7 | 8 | 9 | 7 | – | – | – | – | – | – | – | – | – | – | – | – | – | – | – | –
CC1CCN(Cc2nc(C(F)(F)F)ccc2C(=O)C2=C(O)CCCC2=O)C1=O (stereo not shown) [Compound A1.222] | 9 | 10 | 9 | 9 | – | – | – | – | – | – | – | – | – | – | – | – | – | – | – | –
Cn1ncn(Cc2nc(C(F)(F)F)ccc2C(=O)C2=C(O)C3CCC(C3)C2=O)c1=O (stereo not shown) [Compound A6.073] | – | – | – | – | 10 | 9 | 10 | 7 | 0 | 10 | 10 | 9 | 10 | 10 | 9 | 9 | 10 | 10 | 9 | 9
COc1nn(Cc2nc(C(F)(F)F)ccc2C(=O)C2=C(O)CCCC2=O)c(=O)s1 [Compound A1.091] | – | – | – | – | 10 | 8 | 9 | 8 | 9 | 4 | 9 | 7 | 9 | 10 | 9 | 8 | 9 | 8 | 10 | 9
CC(C)N1CC(=O)N(Cc2nc(C(F)(F)F)ccc2C(=O)c2cnn(C)c2O)C1=O [Compound B1.170] | – | – | – | – | 9 | 9 | 10 | 8 | 9 | 9 | 9 | 9 | 9 | 9 | 9 | 7 | 0 | 9 | 9 | 6
Cc1nn(Cc2nc(C(F)(F)F)ccc2C(=O)C2=C(O)C(C)(C)C(=O)C(C)(C)C2=O)c(=O)o1 [Compound A8.008] | – | – | – | – | 10 | – | 10 | 0 | 10 | 10 | 0 | 10 | 9 | 8 | 8 | 8 | 9 | 7 | 6 | 9
Cc1nn(Cc2nc(C(F)(F)F)ccc2C(=O)c2cnn(C)c2O)c(=O)o1 [Compound B1.008] | – | – | – | – | 10 | 10 | 10 | 9 | 9 | 10 | 10 | 9 | 9 | 10 | 9 | 8 | 9 | 7 | 8 | –
Cn1ncc(C(=O)c2ccc(C(F)(F)F)nc2Cn2cnn(C)c2=O)c1O [Compound B1.080] | – | – | – | – | 8 | 0 | 10 | 9 | 10 | 10 | 9 | 0 | 10 | 10 | 9 | 10 | 10 | 10 | 10 | 8
